Test results from patent US20260115187A1, “TRICYCLIC SKELETON COMPOUND AND USE THEREOF IN PREPARATION OF ANTITUMOR DRUG” (ZHONGSHAN HOSPITAL, FUDAN UNIVERSITY, priority 2024, published 2026).
Like-named read-outs stand apart in the source and are kept apart here.

Key:
[1] = system: PLC/PRF/5 KSR2 OE (PLC cells overexpressing KSR2); assay: Cell IC50 assay (CCK8 cell viability), PLC/PRF/5 KSR2 OE; type: cell-based; settings: Homo sapiens, read-out: IC50 value of cell viability, PLC/PRF/5 KSR2 OE (PLC cells overexpressing KSR2)
Experimental: (§1) (1) Cell Preparation: Hepatoma cells (PLC/PRF/5, sourced from the Chinese Academy of Sciences; MHCC97H, sourced from this research institute) in good growth condition are prepared. The cells are trypsinized, diluted, and seeded into 96-well cell culture plates. 1,000-3,000 cells are added per well. The plates are then placed in a cell culture incubator at 37° C. with 5% CO2. Drugs are added after the cells have adhered for 24 h.
(§2) (2) Drug Addition: The drugs are subjected to gradient dilution, typically setting 9 concentrations. Control groups containing no drug medium and medium containing only the drug solvent are also set up. The diluted drugs are added to the cell culture plates seeded the previous day. The plates are incubated for 72 h.
(§3) (3) CCK8 Assay for Cell Viability: CCK8 is mixed with culture medium at a 1:10 ratio. 100 μL of this mixture is added to each well of the cell culture plate. After incubating for 2-4 h, the OD values are measured using a microplate reader.
(§4) (4) Data Analysis: Based on the corresponding OD values, the data are compiled, IC50 curves are plotted, and the IC50 values are obtained.
(§5) (5) IC50 Verification: The theoretical IC50 value is identified from the IC50 curve. Drug concentrations at ½ times, 1 time, and 2 times this theoretical value are used for verification.

[2] = system: MHCC97H KSR2 OE (97H cells overexpressing KSR2); assay: Cell IC50 assay (CCK8 cell viability), MHCC97H KSR2 OE; type: cell-based; settings: Homo sapiens
Experimental: as §1, §2, §3, §4, §5

[3] = PLC-PRF-5, hepatoma cells, 72 h incubation, CCK8
[4] = hepatoma cells, 72 h incubation, CCK8, read-out: IC50 value of cell viability, MHCC97H KSR2 OE (97H cells overexpressing KSR2)
[5] = read-out: IC50 value of cell viability, MHCC97H KSR2 OE (97H cells overexpressing KSR2)

Compound | IC50 [1, 3] [µM] | IC50 [2, 4] [µM] | IC50 ([1]; PLC-PRF-5, 72 h) [µM] | IC50 [2, 5] [µM]
CC(CNC(=O)c1nn(C)c2c1CSc1ccccc1-2)CN1CCN(c2ccccc2)CC1 (stereo not drawn) [Compound 40] | 21 | > 100 |  | 
CN1CCN(C2CCN(CCCNC(=O)c3c4c(nn3C)-c3ccc(Cl)cc3OC4)CC2)CC1 [Compound 117] | 6 | 0.7 |  | 
Cn1nc(C(=O)NCCCN2CC(N3CC[C@H](O)C3)C2)c2c1-c1ccc(Cl)cc1OC2 [Compound 104] | 30 | 41 |  | 
CN1CCN(C2CN(CCCNC(=O)c3c4c(nn3C)-c3ccc(Cl)cc3OC4)C2)CC1 [Compound 118] | 10 | 5 |  | 
Cn1nc(C(=O)NCCCN2CCN(C3CCC3)CC2)c2c1-c1ccccc1SC2 [Compound 6] |  |  | 42 | 70
Cn1nc(C(=O)NCCCN2CCN(c3cccc(Cl)c3)CC2)c2c1-c1ccccc1SC2 [Compound 24] | 18 | 39 |  | 
CN1CCN(C2CCN(CCCNC(=O)c3nn(C)c4c3COc3cc(Cl)c(Br)cc3-4)CC2)CC1 [Compound 101] | 1 | 1 |  | 
Cc1ccc2c(c1)OCc1c-2nn(C)c1C(=O)NCCCN1CC(N2CCN(C)CC2)C1 [Compound 115] | 43 | 18 |  | 
CN1CCN(C2CN(CCCNC(=O)c3nn(C)c4c3CSc3ccccc3-4)C2)CC1 [Compound 85] | 25 | 19 |  | 
Cn1nc(C(=O)NCCCN2CCC(N3CCCC3)CC2)c2c1-c1ccccc1SC2 [Compound 38] | 3 | 4 |  | 
CN1CCN(C2CCN(CCCNC(=O)c3nn(C)c4c3COc3cc(F)ccc3-4)CC2)CC1 [Compound 71] | 8 | 5 |  | 
COc1ccc(N2CCN(CCCNC(=O)c3nn(C)c4c3CSc3ccccc3-4)CC2)cc1 [Compound 27] | 31 | 13 |  | 
Cn1nc(C(=O)NCC(F)(F)CN2CCC(N3CCOCC3)CC2)c2c1-c1ccccc1SC2 [Compound 35] | 28 | 22 |  | 
CN1CCN(C2CCN(CCCNC(=O)c3c4c(nn3C)-c3ccc(-n5nccn5)cc3OC4)CC2)CC1 [Compound 124] | 2 | 5 |  | 
Cn1nc(C(=O)NCCCN2CCC(N3CCN(CC4COC4)CC3)CC2)c2c1-c1ccccc1SC2 [Compound 70] | 39 | 9 |  | 
CN1CCN(C2CCN(CCCNC(=O)c3c4c(nn3C)-c3cc(Br)c(Cl)cc3OC4)CC2)CC1 [Compound 102] | 1 | 1 |  | 
CN1CCCC12CN(CCCNC(=O)c1nn(C)c3c1CSc1ccccc1-3)C2 [Compound 100] | 61 | 71 |  | 
Cn1nc(C(=O)NCCCN2CCN(c3ccccc3Cl)CC2)c2c1-c1ccccc1SC2 [Compound 22] | 15 | 30 |  | 
CN1CCN(C2CCN(CCCNC(=O)c3nn(C)c4c3COc3cc(C(F)(F)F)ccc3-4)CC2)CC1 [Compound 91] | 2 | 4 |  | 
Cn1nc(C(=O)NCCCN2CCN(c3ccc(C#N)cc3)CC2)c2c1-c1ccccc1SC2 [Compound 29] | 41 | 2 |  | 
Cn1nc(C(=O)NCCCN2CCC(N3CCN(Cc4ccccc4)CC3)CC2)c2c1-c1ccccc1SC2 [Compound 58] | 2 | 2 |  | 
CN1CCN(C2CCN(CCCNC(=O)c3n[nH]c4c3CSc3ccccc3-4)CC2)CC1 [Compound 83] | 18 | 10 |  | 
Cn1nc(C(=O)NCC2CC(N3CCC(N4CCCC4)CC3)C2)c2c1-c1ccccc1SC2 (stereo not drawn) [Compound 51] | 1 | 1 |  | 
CN(C)C1CCN(CCCNC(=O)c2nn(C)c3c2CSc2ccccc2-3)CC1 [Compound 45] | 5 | 6 |  | 

Compound | IC50 [1, 3] [µM] | IC50 [2, 4] [µM] | IC50 ([1]; PLC-PRF-5, 72 h) [µM] | IC50 [2, 5] [µM]
CN1CCN(C2CCN(CCCNC(=O)c3c4c(nn3C)-c3cc(C#N)c(Cl)cc3OC4)CC2)CC1 [Compound 122] | 4 | 5 |  | 
Cn1nc(C(=O)NCCCN2CCC(N3CCN(CCC#N)CC3)CC2)c2c1-c1ccccc1SC2 [Compound 79] | 57 | 40 |  | 
CCN1CCN(C2CN(C3CC(CNC(=O)c4nn(C)c5c4COc4cc(OC(F)(F)F)ccc4-5)C3)C2)CC1 (stereo not drawn) [Compound 112] | 3 | 4 |  | 
Cn1nc(C(=O)NCC(O)CN2CCN(c3ccccc3)CC2)c2c1-c1ccccc1SC2 (stereo not drawn) [Compound 18] | 42 | 40 |  | 
CCN1CCN(C2CN(C3CC(CNC(=O)c4nn(C)c5c4COc4cc(Cl)ccc4-5)C3)C2)CC1 (stereo not drawn) [Compound 114] | 4 | 2 |  | 
CCN1CCN(C2CN(C3CC(CNC(=O)c4nn(C)c5c4CSc4ccccc4-5)C3)C2)CC1 (stereo not drawn) [Compound 80] | 28 | 8 |  | 
CN1CCN(C2CCN(CCCNC(=O)c3nn(C)c4c3COc3cc(-c5cn[nH]c5)ccc3-4)CC2)CC1 [Compound 127] | 8 | 4 |  | 
CN1CCN(C2CCN(CCCNC(=O)c3nn(C)c4c3CSc3ccccc3-4)CC2)CC1 [Compound 30] | 9 | 6 |  | 
Cn1nc(C(=O)NCC(F)(F)CN2CCN(c3ccccc3)CC2)c2c1-c1ccccc1SC2 [Compound 23] | 8 | 8 |  | 
Cn1nc(C(=O)NCCN2CCN(C3CCCCC3)CC2)c2c1-c1ccccc1SC2 [Compound 11] |  |  | 35 | 62
Cn1nc(C(=O)NCCCN2CCN(C3CCCCC3)CC2)c2c1-c1ccccc1CC2 [Compound 17] | 21 | 57 |  | 
Cn1nc(C(=O)NCCCN2CCN(C3CCCC3)CC2)c2c1-c1ccccc1SC2 [Compound 3] | 32 | 56 |  | 
Cn1nc(C(=O)NCCCN2CCN(c3ccccn3)CC2)c2c1-c1ccccc1SC2 [Compound 19] | 40 | 40 |  | 
Cn1nc(C(=O)NCCCN2CCC(N3CCC(F)(F)C3)CC2)c2c1-c1ccccc1SC2 [Compound 43] | 41 | 43 |  | 
CCN1CCN(C2CCN(C3CC(CNC(=O)c4nn(C)c5c4CSc4ccccc4-5)C3)CC2)CC1 (stereo not drawn) [Compound 61] | 0.2 | 1 |  | 
Cn1nc(C(=O)NCCCN2CCN(c3ccncc3)CC2)c2c1-c1ccccc1SC2 [Compound 21] | 7 | 6 |  | 
CN1CCN(C2CCN(CCCNC(=O)c3c4c(nn3C)-c3ccc(-c5cn[nH]c5)cc3OC4)CC2)CC1 [Compound 123] | 114 | 85 |  | 
Cn1nc(C(=O)NCCCN2CCN(c3ccc(Cl)cc3)CC2)c2c1-c1ccccc1SC2 [Compound 25] | 20 | 37 |  | 
CCN1CCN(C2CCN(CCCNC(=O)c3n[nH]c4c3COc3cc(Cl)c(C#N)cc3-4)CC2)CC1 [Compound 129] | 5 | 4 |  | 
CCN1CCN(C2CN(CCCNC(=O)c3nn(C)c4c3COc3cc(Cl)ccc3-4)C2)CC1 [Compound 87] | 6 | 3 |  | 
CN1CCN(C2CCN(CCCNC(=O)c3nn(C)c4c3COc3ccccc3-4)CC2)CC1 [Compound 50] | 7 | 6 |  | 
COCCN1CCN(C2CCN(CCCNC(=O)c3nn(C)c4c3CSc3ccccc3-4)CC2)CC1 [Compound 66] | 19 | 21 |  | 
Cn1nc(C(=O)NCCCN2CCC(N3CCC3)CC2)c2c1-c1ccccc1SC2 [Compound 47] | 2 | 4 |  | 
CCN1CCN(C2CCN(CCCNC(=O)c3nn(C)c4c3CSc3ccccc3-4)CC2)CC1 [Compound 44] | 2 | 0.2 |  | 
